# Source: PubChem BioAssay (NCI)
#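 Five concentrations, 48 hours, 96-well plates. TGI is the concentration that stops growth completely.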
# Key:
# Assay in all cases: NCI-60 cell line screen, 48 h
# SN12C renal = tested on: SN12C renal
# MDA-MB-435 = tested on: MDA-MB-435
# LOX IMVI melanoma = tested on: LOX IMVI melanoma
# T-47D breast = tested on: T-47D breast
# HT29 colon = tested on: HT29 colon
# CAKI-1 renal = tested on: CAKI-1 renal
# UACC-62 melanoma = tested on: UACC-62 melanoma
# NCI/ADR-RES ovarian = tested on: NCI/ADR-RES ovarian
# OVCAR-5 ovarian = tested on: OVCAR-5 ovarian
# MDA-MB-231 breast = tested on: MDA-MB-231 breast
# OVCAR-3 ovarian = tested on: OVCAR-3 ovarian
# HCC-2998 colon = tested on: HCC-2998 colon
# U251 CNS = tested on: U251 CNS
# MOLT-4 leukemia = tested on: MOLT-4 leukemia
# SW-620 colon = tested on: SW-620 colon
# HCT-116 colon = tested on: HCT-116 colon
SMILES,TGI (SN12C renal) [µM],TGI (MDA-MB-435) [µM],TGI (LOX IMVI melanoma) [µM],TGI (T-47D breast) [µM],TGI (HT29 colon) [µM],TGI (CAKI-1 renal) [µM],TGI (UACC-62 melanoma) [µM],TGI (NCI/ADR-RES ovarian) [µM],TGI (OVCAR-5 ovarian) [µM],TGI (MDA-MB-231 breast) [µM],TGI (OVCAR-3 ovarian) [µM],TGI (HCC-2998 colon) [µM],TGI (U251 CNS) [µM],TGI (MOLT-4 leukemia) [µM],TGI (SW-620 colon) [µM],TGI (HCT-116 colon) [µM]
Cn1c(Cl)cn2c3nc4ccccc4nc3c(=O)c(C#N)c12,> 100,> 100,> 100,> 100,> 100,> 100,> 100,> 100,> 100,> 100,> 100,> 67.8,> 100,> 100,> 100,> 100
COC(=O)[C@@H](NC(=O)N(CCC#N)CCCN(C(=O)N[C@H](Cc1ccccc1)C(=O)OC)c1ccccc1)C(C)C,> 100,> 100,> 100,> 100,–,> 100,> 100,> 100,> 100,> 100,> 100,> 100,> 100,> 100,> 100,> 100
CN1C(=O)C(c2c[nH]c3ccccc23)N(C)C(=O)C1c1c[nH]c2ccccc12 (stereo unspecified),> 100,> 100,> 100,> 100,> 100,> 100,> 100,> 100,> 100,> 100,> 100,> 100,> 100,> 100,> 100,> 100
CCOc1cc2c(cc1O)CC[C@@H]1[C@@H]2CC[C@]2(C)C(N)CC[C@@H]12 (stereo partly specified),20.5,3.96,10.9,25.3,6.4,22.7,16.8,8.98,36.9,5.56,24.7,5.44,9.37,24.7,14.3,12.6
Nc1nc2n[nH]nc2c(=O)[nH]1,> 100,29,6.88,10.5,> 100,> 100,2.62,> 100,> 88.4,> 100,73.8,> 100,> 100,4.35,> 100,8.95
Cc1c2c(Cl)c3c(c(Cl)c2c(C)c2c(Cl)c4c(c(Cl)c12)C(c1ccccc1)(c1ccccc1)C4(c1ccccc1)c1ccccc1)C(c1ccccc1)(c1ccccc1)C3(c1ccccc1)c1ccccc1,> 100,> 100,> 100,> 100,> 100,> 100,> 100,> 100,> 100,> 100,> 100,> 100,> 100,> 100,> 100,> 100
Cc1cc2nc(N3C(=O)/C(=C/c4ccccc4S)N=C3c3ccccc3)sc2cc1C,82.6,95.9,> 100,> 100,76.7,> 100,> 100,92.3,> 100,86,> 100,> 100,> 100,> 100,> 100,61.3
